Test results reported in US10034861B2 (priority 2016, dated 2018).
Read-outs that look alike come from different tables or passages of the source.

Legend:
Format in all cases: biochemical
[1] = target: PDE1B (Homo sapiens (Human), UniProt Q01064); assay: PDE1 inhibition assay (PDE1B); conditions: 15 nM tritium labelled cAMP, 1 hr at room temperature, SPA beads
Text: (§1) Table 1 lists the IC50 value for inhibition of PDE1 by the compounds of the invention. […] PDE1 assays are described in the Experimental Section.

[2] = target: PDE1C (Homo sapiens (Human), UniProt Q14123); assay: biochemical
PDE1C, sequence (Q14123 whole entry): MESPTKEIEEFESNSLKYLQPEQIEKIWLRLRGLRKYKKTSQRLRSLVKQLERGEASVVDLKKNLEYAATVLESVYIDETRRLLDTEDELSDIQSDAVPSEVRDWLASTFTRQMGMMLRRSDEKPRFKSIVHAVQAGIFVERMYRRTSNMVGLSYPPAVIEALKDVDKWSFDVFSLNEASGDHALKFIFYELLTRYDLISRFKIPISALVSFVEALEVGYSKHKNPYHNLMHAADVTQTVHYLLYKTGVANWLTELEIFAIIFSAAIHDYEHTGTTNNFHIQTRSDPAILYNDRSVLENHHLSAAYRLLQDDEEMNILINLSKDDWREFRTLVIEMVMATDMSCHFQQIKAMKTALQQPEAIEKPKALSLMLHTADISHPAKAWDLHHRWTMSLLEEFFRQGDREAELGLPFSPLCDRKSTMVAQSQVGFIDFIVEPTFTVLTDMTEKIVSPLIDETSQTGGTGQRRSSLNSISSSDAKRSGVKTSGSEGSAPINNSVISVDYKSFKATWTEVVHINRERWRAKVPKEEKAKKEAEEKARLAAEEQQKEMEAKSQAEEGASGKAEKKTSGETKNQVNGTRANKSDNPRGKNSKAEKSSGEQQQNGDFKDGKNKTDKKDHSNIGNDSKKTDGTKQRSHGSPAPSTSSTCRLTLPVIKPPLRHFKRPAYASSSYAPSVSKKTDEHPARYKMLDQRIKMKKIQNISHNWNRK
Text: as §1

[3] = target: PDE1A (Homo sapiens (Human), UniProt P54750); assay: biochemical
PDE1A, sequence (P54750 whole entry): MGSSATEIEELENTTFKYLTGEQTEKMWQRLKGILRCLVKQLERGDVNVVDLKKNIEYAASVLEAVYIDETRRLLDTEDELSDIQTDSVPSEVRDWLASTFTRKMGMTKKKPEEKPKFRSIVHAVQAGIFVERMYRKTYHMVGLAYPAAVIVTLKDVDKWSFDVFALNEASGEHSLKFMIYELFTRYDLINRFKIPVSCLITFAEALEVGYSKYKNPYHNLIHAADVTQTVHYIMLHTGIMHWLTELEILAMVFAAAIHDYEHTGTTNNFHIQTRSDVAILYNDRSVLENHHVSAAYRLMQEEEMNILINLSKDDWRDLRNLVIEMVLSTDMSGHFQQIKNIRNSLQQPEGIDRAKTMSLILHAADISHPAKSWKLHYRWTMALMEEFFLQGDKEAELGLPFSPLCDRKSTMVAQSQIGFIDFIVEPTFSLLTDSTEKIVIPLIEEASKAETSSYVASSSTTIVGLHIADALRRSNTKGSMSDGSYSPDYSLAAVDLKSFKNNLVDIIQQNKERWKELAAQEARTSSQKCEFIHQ
Text: as §1

[4] = 15 nM tritium labelled cAMP, 1 hr at room temperature, SPA beads

PDE1B, sequence (Q01064 whole entry): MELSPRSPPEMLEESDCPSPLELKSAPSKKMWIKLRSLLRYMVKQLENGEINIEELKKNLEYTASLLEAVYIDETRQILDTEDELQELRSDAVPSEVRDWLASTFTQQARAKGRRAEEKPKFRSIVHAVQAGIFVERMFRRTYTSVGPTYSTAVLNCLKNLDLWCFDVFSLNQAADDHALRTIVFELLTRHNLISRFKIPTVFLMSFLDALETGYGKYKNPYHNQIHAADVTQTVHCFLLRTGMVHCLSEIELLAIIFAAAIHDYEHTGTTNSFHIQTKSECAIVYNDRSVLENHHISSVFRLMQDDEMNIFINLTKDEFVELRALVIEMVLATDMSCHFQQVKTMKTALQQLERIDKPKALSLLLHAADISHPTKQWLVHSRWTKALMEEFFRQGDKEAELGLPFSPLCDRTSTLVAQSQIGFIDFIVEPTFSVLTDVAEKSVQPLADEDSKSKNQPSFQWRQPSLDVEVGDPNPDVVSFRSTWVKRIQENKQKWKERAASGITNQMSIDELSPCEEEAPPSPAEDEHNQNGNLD

SMILES | IC50 ([1]; PDE1B, IC50 (nM)) | IC50 [2] | IC50 [3] | IC50 ([1]; read-out: PDE1B, IC50) | IC50 [2, 4] | IC50 [3, 4]
[2H]C([2H])([2H])C([2H])([2H])Oc1ncccc1-c1cc(NCc2cccnc2OC)c2c(n1)c(C)nn2C(C)C [Example 181, 5-(2-(ethoxy-d5)pyridin-3-yl)-1-isopropyl-N-((2-methoxypyridin-3-yl)methyl)-3-methyl-1H-pyrazolo[4,3-b]pyridin-7-amine] | 1.6 nM | 84 nM | 31 nM | – | – | –
CCOc1ncccc1-c1cc(NCc2ccc(C)nc2)c2c(n1)c(C)nn2C(C)C [Example 87, 5-(2-ethoxy-3-pyridyl)-1-isopropyl-3-methyl-N-[(6-methyl-3-pyridyl)methyl]pyrazolo[4,3-b]pyridin-7-amine] | – | – | – | 0.95 nM | 13 nM | 6.3 nM
CCOc1ncccc1-c1cc(NCc2ncc(C)o2)c2c(n1)c(C)nn2C(C)C [Example 38, 5-(2-ethoxy-3-pyridyl)-1-isopropyl-3-methyl-N-[(5-methyloxazol-2-yl)methyl]pyrazolo[4,3-b]pyridin-7-amine] | – | – | – | 0.24 nM | 13 nM | 1.1 nM
CCOc1ncccc1-c1cc(NCc2c[nH]c(C)n2)c2c(n1)c(C)nn2C(C)C [Example 46, 5-(2-ethoxypyridin-3-yl)-1-isopropyl-3-methyl-N-((2-methyl-1H-imidazol-4-yl)methyl)-1H-pyrazolo[4,3-b]pyridin-7-amine] | – | – | – | 0.42 nM | 9.7 nM | 5 nM
CCOc1ncccc1-c1cc(NCc2cn(C)nn2)c2c(n1)c(C)nn2C(C)C [Example 6, 5-(2-ethoxy-3-pyridyl)-1-isopropyl-3-methyl-N-[(1-methyltriazol-4-yl)methyl]pyrazolo[4,3-b]pyridin-7-amine] | – | – | – | 0.22 nM | 5.6 nM | 4.8 nM
CCOc1ncccc1-c1cc(NCc2cc(OC)ccn2)c2c(n1)c(C)nn2C(C)C [Example 81, 5-(2-ethoxy-3-pyridyl)-1-isopropyl-N-[(4-methoxy-2-pyridyl)methyl]-3-methyl-pyrazolo[4,3-b]pyridin-7-amine] | – | – | – | 0.26 nM | 4.7 nM | 1 nM
CCOc1ncccc1-c1cc(NCc2ccnc(OC)c2)c2c(n1)c(C)nn2C(C)C [Example 104, 5-(2-ethoxy-3-pyridyl)-1-isopropyl-N-[(2-methoxy-4-pyridyl)methyl]-3-methyl-pyrazolo[4,3-b]pyridin-7-amine] | – | – | – | 0.16 nM | 6.3 nM | 2.2 nM
CCCOc1ncccc1-c1cc(NCc2cn(C)cn2)c2c(n1)c(C)nn2C(C)C [Example 142, 1-isopropyl-3-methyl-N-[(1-methylimidazol-4-yl)methyl]-5-(2-propoxy-3-pyridyl)pyrazolo[4,3-b]pyridin-7-amine] | – | – | – | 0.1 nM | 0.8 nM | 0.26 nM
CCOc1ncccc1-c1cc(NCc2cccc(OC)n2)c2c(n1)c(C)nn2C(C)C [Example 102, 5-(2-ethoxy-3-pyridyl)-1-isopropyl-N-[(6-methoxy-2-pyridyl)methyl]-3-methyl-pyrazolo[4,3-b]pyridin-7-amine] | – | – | – | 0.73 nM | 34 nM | 8 nM
CCOc1ncccc1-c1cc(NCc2cccc(C)n2)c2c(n1)c(C)nn2C(C)C [Example 101, 5-(2-ethoxy-3-pyridyl)-1-isopropyl-3-methyl-N-[(6-methyl-2-pyridyl)methyl]pyrazolo[4,3-b]pyridin-7-amine] | – | – | – | 0.9 nM | 43 nM | 20 nM
CCOc1ncccc1-c1cc(NCc2cncnc2OC)c2c(n1)c(C)nn2C(C)C [Example 190, 5-(2-ethoxy-3-pyridyl)-1-isopropyl-N-[(4-methoxypyrimidin-5-yl)methyl]-3-methyl-pyrazolo[4,3-b]pyridin-7-amine] | – | – | – | 7.9 nM | 94 nM | 74 nM
CCOc1ncccc1-c1cc(NCc2ccncc2)c2c(cnn2C(C)C)n1 [Example 22, 5-(2-ethoxy-3-pyridyl)-1-isopropyl-N-(4-pyridylmethyl)pyrazolo[4,3-b]pyridin-7-amine] | – | – | – | 50 nM | 430 nM | 250 nM
CCOc1ncccc1-c1cc(NCc2cnn(C)c2)c2c(n1)c(C)nn2C1COC1 [Example 27, 5-(2-ethoxy-3-pyridyl)-3-methyl-N-[(1-methylpyrazol-4-yl)methyl]-1-(oxetan-3-yl)pyrazolo[4,3-b]pyridin-7-amine] | – | – | – | 6.6 nM | 170 nM | 94 nM
CCOc1ncccc1-c1cc(NCc2ccn(C)n2)c2c(n1)c(C)nn2C(C)CC (single isomer, unassigned) [Example 67, 5-(2-ethoxy-3-pyridyl)-3-methyl-1-[1-methylpropyl]-N-[(1-methylpyrazol-3-yl)methyl]pyrazolo[4,3-b]pyridin-7-amine] | 0.64 nM | – | – | – | 27 nM | 9.6 nM
CCOc1ncccc1-c1cc(NCc2cccnc2C(F)F)c2c(n1)c(C)nn2C(C)C [Example 178, N-[[2-(difluoromethyl)-3-pyridyl]methyl]-5-(2-ethoxy-3-pyridyl)-1-isopropyl-3-methyl-pyrazolo[4,3-b]pyridin-7-amine] | – | – | – | 3.2 nM | 63 nM | 31 nM
CCOc1ncccc1-c1cc(CNc2cncc(OC)c2)c2c(n1)c(C)nn2C(C)C [Example 157, N-[[5-(2-ethoxy-3-pyridyl)-1-isopropyl-3-methyl-pyrazolo[4,3-b]pyridin-7-yl]methyl]-5-methoxy-pyridin-3-amine] | – | – | – | 14 nM | 77 nM | 34 nM
Cc1nn(C(C)C)c2c(NCc3cnn(C)c3)cc(-c3ccc[nH]c3=O)nc12 [Example 177, 3-[1-isopropyl-3-methyl-7-[(1-methylpyrazol-4-yl)methylamino]pyrazolo[4,3-b]pyridin-5-yl]-1H-pyridin-2-one] | – | – | – | 20 nM | 180 nM | 130 nM
CCOc1ncccc1-c1cc(NCc2ccccc2OC)c2c(n1)c(C)nn2C(C)C [Example 88, 5-(2-ethoxy-3-pyridyl)-1-isopropyl-N-[(2-methoxyphenyl)methyl]-3-methyl-pyrazolo[4,3-b]pyridin-7-amine] | – | – | – | 5.1 nM | 170 nM | 110 nM
CCOc1ncccc1-c1cc(NCc2cccc(C(F)(F)F)n2)c2c(n1)c(C)nn2C(C)C [Example 107, 5-(2-ethoxy-3-pyridyl)-1-isopropyl-3-methyl-N-[[6-(trifluoromethyl)-2-pyridyl]methyl]pyrazolo[4,3-b]pyridin-7-amine] | – | – | – | 5.6 nM | 170 nM | 110 nM
CCOc1ncccc1-c1cc(NCc2ncccc2OC)c2c(n1)c(C)nn2C(C)C [Example 118, 5-(2-ethoxy-3-pyridyl)-1-isopropyl-N-[(3-methoxy-2-pyridyl)methyl]-3-methyl-pyrazolo[4,3-b]pyridin-7-amine] | – | – | – | 0.42 nM | 88 nM | 13 nM
Cc1nn(C(C)C)c2c(NCc3cnn(C)c3)cc(N3CCCC3=O)nc12 [Example 154, 1-[1-isopropyl-3-methyl-7-[(1-methylpyrazol-4-yl)methylamino]pyrazolo[4,3-b]pyridin-5-yl]pyrrolidin-2-one] | – | – | – | 3.6 nM | 49 nM | 26 nM
Cc1nn(C(C)C)c2c(NCc3cnn(C)c3)cc(-c3ncco3)nc12 [Example 168, 1-isopropyl-3-methyl-N-[(1-methylpyrazol-4-yl)methyl]-5-oxazol-2-yl-pyrazolo[4,3-b]pyridin-7-amine] | – | – | – | 2.6 nM | 36 nM | 14 nM
CCOc1ncccc1-c1cc(NCc2ncc(OC)cn2)c2c(n1)c(C)nn2C(C)C [Example 176, 5-(2-ethoxy-3-pyridyl)-1-isopropyl-N-[(5-methoxypyrimidin-2-yl)methyl]-3-methyl-pyrazolo[4,3-b]pyridin-7-amine] | – | – | – | 12 nM | 93 nM | 81 nM
CCOc1ncccc1-c1cc(NCc2ccccc2C(F)(F)F)c2c(n1)c(C)nn2C(C)C [Example 90, 5-(2-ethoxy-3-pyridyl)-1-isopropyl-3-methyl-N-[[2-(trifluoromethyl)phenyl]methyl]pyrazolo[4,3-b]pyridin-7-amine] | – | – | – | 12 nM | 640 nM | 270 nM
CCOc1ncccc1CNc1cc(-c2cccnc2OCC)nc2c(C)nn(C(C)C)c12 [Example 191, 5-(2-ethoxy-3-pyridyl)-N-[(2-ethoxy-3-pyridyl)methyl]-1-isopropyl-3-methyl-pyrazolo[4,3-b]pyridin-7-amine] | – | – | – | 10 nM | 400 nM | 160 nM
CCOc1ncccc1-c1cc(NCc2cccnc2)c2c(n1)c(C)nn2C(C)C [Example 115, 5-(2-ethoxy-3-pyridyl)-1-isopropyl-3-methyl-N-(3-pyridylmethyl)pyrazolo[4,3-b]pyridin-7-amine] | – | – | – | 2 nM | 31 nM | 15 nM
CCOc1ncccc1-c1cc(NCc2cc(C)n(C)n2)c2c(n1)c(C)nn2C(C)C [Example 54, N-[(1,5-dimethylpyrazol-3-yl)methyl]-5-(2-ethoxy-3-pyridyl)-1-isopropyl-3-methyl-pyrazolo[4,3-b]pyridin-7-amine] | – | – | – | 0.18 nM | 4.6 nM | 0.39 nM
Cc1nn(C(C)C)c2c(NCc3cnn(C)c3)cc(N3CCN(C(C)(C)C)C3=O)nc12 [Example 153, 1-tert-butyl-3-[1-isopropyl-3-methyl-7-[(1-methylpyrazol-4-yl)methylamino]pyrazolo[4,3-b]pyridin-5-yl]imidazolidin-2-one] | – | – | – | 76 nM | 270 nM | 130 nM
CCOc1ncccc1-c1cc(NCc2cnn(C)n2)c2c(n1)c(C)nn2C(C)C [Example 5, 5-(2-ethoxy-3-pyridyl)-1-isopropyl-3-methyl-N-[(2-methyltriazol-4-yl)methyl]pyrazolo[4,3-b]pyridin-7-amine] | – | – | – | 1.8 nM | 28 nM | 11 nM
